In US5464826A, “Method of treating tumors in mammals with 2',2'-difluoronucleosides” (Eli Lilly and Company, priority 1994, dated 1995):
Converted amounts (≈) assume the structure as drawn. Like-named read-outs stand apart in the source and are kept apart here.

Assays:
[1] = test system: human leukemic cells (CCRF-CEM cell line); test: Cytotoxicity Screen (growth inhibition); type: cell-based; details: for IC50: Homo sapiens, read-out: IC50 (concentration giving 50% growth inhibition)
From the text: The compounds represented by formula I employed in the present invention are cytostatic in that they inhibit the growth of human leukemic cells (CCRF-CEM cell line). […] T1 TABLE 1-Cytotoxicity Screen? -Compound Name?

[2] = test system: L1210V lymphocytic leukemia; test: L1210V Lymphocytic Leukemia Tumor System; type: in vivo, mice; details: Experiment 1, IP; for Indefinite Survivors: 45 day survivors; for Toxic Deaths: deaths/mice in group
Description: The study testing the efficacy of these compounds against L1210V leukemia was initiated by an IP inoculation of 1×10^6 cells. Treatment was begun 24 hours after inoculation. The response to therapy was determined by comparing the mean life span of the ten treated animals to that of the ten control animals; prolongation of life in the treated animals beyond that of controls is expressed as a percentage. In the Table, column 1 gives the example number of the compound tested; column 2, the experiment number; column 3, the dose level of the compound in mg/kg; column 4, the route of administration; column 5, the dosage schedule, that is, the days on which the compound was administered to the mice; column 6, the average increase in life span of the treated mice as compared to the control mice; column 7, the toxic deaths over the number of mice in each group; and column 8, the indefinite survivors, that is, the number of 45 day survivors in each group.

[3] = test system: 6C3HED, CA755, P1534J, X5563; test: additional tumor test systems (summary statement); type: in vivo, mice; details: systems include 6C3HED
From the text: These systems include the 6C3HED lymphosarcoma, also known as the Gardner lymphosarcoma (6C3HED); the CA-755 adenocarcinoma (CA755); the P1534J lymphatic leukemia (P1534J); and the X5563 plasma cell myeloma (X5563). Each of these systems is described in detail below.
The tumor was removed from passage animals and minced into 1 to 3 mm square fragments using sterile techniques. Tumor pieces were checked for sterility using both Antibiotic Medium 1 and Brain Heart Infusion (Difco; Detroit, Mich.). Recipient mice were shaved and tumor pieces were implanted subcutaneously in the axillary region by trocar. Drug therapy on the appropriate schedule was initiated on the day after tumor implant. The compound was dissolved in saline for all experiments. All animals were weighed at the beginning and end of drug treatment. Food and water were provided ad libitum. On days 10 to 12, two dimensional measurements (width and length) of all tumors were taken using vernier calipers. Tumor weights were calculated from these measurements using the following formula: […]

[4] = test system: X5563 plasma cell myeloma; test: X5563 plasma cell myeloma tumor model; type: in vivo, mice (C3H); details: 30.0 mg/kg; IP; Daily for 9 days
From the text: X5563 Myeloma--the tumor is maintained in C3H mice.
The tumor was removed from passage animals and minced into 1 to 3 mm square fragments using sterile techniques. Tumor pieces were checked for sterility using both Antibiotic Medium 1 and Brain Heart Infusion (Difco; Detroit, Mich.). Recipient mice were shaved and tumor pieces were implanted subcutaneously in the axillary region by trocar. Drug therapy on the appropriate schedule was initiated on the day after tumor implant. The compound was dissolved in saline for all experiments. All animals were weighed at the beginning and end of drug treatment. Food and water were provided ad libitum. On days 10 to 12, two dimensional measurements (width and length) of all tumors were taken using vernier calipers. Tumor weights were calculated from these measurements using the following formula:
Tumor Weight (mg)=Tumor Length (mm)×Tumor Width (mm)^2 /2
For all data, the tumor weight was rounded to the nearest tenth of a gram for analysis. No group is included in the analysis for therapeutic activity in which deaths attributable to drug toxicity exceeded 30 percent of the treated group.
In Table 3 which follows, column 1 gives the example number of the compound tested; column 2 provides the tumor system; column 3, the dose level; column 4, the route administered; column 5, the dosage schedule; column 6, the percent inhibition of the tumor; and column 7, the toxic deaths observed prior to completion of the study.

Compound: 1-(2,6-diamino-9H-purin-9-yl)-2-desoxy-2,2-difluororibose
- IC50 (concentration giving 50% growth inhibition) [1]: 0.075 µg/mL

Compound: 1-(6-Amino-9H-purin-9-yl)-2-desoxy-2,2-difluororibose [Example 6]
- Percent Increase Life Span ([2]; 100.0 mg/kg, Daily for 9 days): 16%
- Indefinite Survivors ([2]; 100.0 mg/kg, Daily for 9 days): 0
- Toxic Deaths ([2]; 100.0 mg/kg, Daily for 9 days): 0/7
- Percent Increase Life Span ([2]; 200.0 mg/kg, Daily for 9 days): 18%
- Indefinite Survivors ([2]; 200.0 mg/kg, Daily for 9 days): 0
- Toxic Deaths ([2]; 200.0 mg/kg, Daily for 9 days): 0/7

Compound: O=c1[nH]c(=O)c2ncn(C3O[C@H](CO)[C@@H](O)C3(F)F)c2[nH]1 (stereo partly shown) [1-(2,6-dioxo-1H,3H,9H-purin-9-yl)-2-desoxy-2,2-difluororibose]
- IC50 [1]: 0.3 µg/mL (≈ 0.986 µM)

Compound: Nc1nc2c(ncn2C2O[C@H](CO)[C@@H](O)C2(F)F)c(=O)[nH]1 (stereo partly shown) [1-(2-amino-6-oxo-1H,9H-purin-9-yl)-2-desoxy-2,2-difluororibose]
- IC50 [1]: 0.1 µg/mL (≈ 0.33 µM)

Compound: O=c1ccn(C2O[C@H](CO)[C@@H](O)C2(F)F)c(=O)[nH]1 (stereo partly shown) [Example 3, 1-(2,4-Dioxo-1H, 3H-pyrimidin-1-yl)-2-desoxy-2,2-difluororibose]
- IC50 [1]: 5.4 µg/mL (≈ 20.4 µM)

Compound: Cc1cn(C2O[C@H](CO)[C@@H](O)C2(F)F)c(=O)nc1N (stereo partly shown) [Example 4, 1-(4-Amino-5-methyl-2-oxo-1H-pyrimidin-1-yl)-2-desoxy-2,2-difluororibose]
- IC50 [1]: 0.3 µg/mL (≈ 1.08 µM)

Compound: Nc1ccn(C2O[C@H](CO)[C@H](O)C2(F)F)c(=O)n1 (stereo partly shown) [Example 5, 1-(4-Amino-2-oxo-1H-pyrimidin-1-yl)-2-desoxy-2,2-difluoroxylose]
- activity in additional tumor test systems (in words) [3]: demonstrated activity in additional tumor test systems
- Percent Inhibition of Tumor [4]: 28%
- Toxic Deaths [4]: 0/10
- IC50 ([1]; CCRF-CEM): 0.3 µg/mL (≈ 1.14 µM)
- Percent Increase Life Span ([2]; 30.0 mg/kg, Daily for 10 days): 57%
- Indefinite Survivors ([2]; 30.0 mg/kg, Daily for 10 days): 0
- Toxic Deaths ([2]; 30.0 mg/kg, Daily for 10 days): 0/10

Compound: Nc1nc(Cl)nc2c1ncn2[C@H]1O[C@H](CO)[C@@H](O)C1(F)F [α-1-(2-chloro-6-amino-9H-purin-9-yl)-2-desoxy-2,2-difluororibose]
- IC50 [1]: > 20 µg/mL

Compound: Nc1ncnc2c1ncn2[C@H]1O[C@H](CO)[C@@H](O)C1(F)F [α-1-(6-amino-9H-purin-9-yl)-2-desoxy-2,2-difluororibose]
- IC50 [1]: 6.9 µg/mL (≈ 24 µM)

Compound: Nc1nc(Cl)nc2c1ncn2[C@@H]1O[C@H](CO)[C@@H](O)C1(F)F [β-1-(2-chloro-6-amino-9H-purin-9-yl)-2-desoxy-2,2-difluororibose]
- IC50 [1]: 0.4 µg/mL (≈ 1.24 µM)

Compound: Nc1ncnc2c1ncn2[C@@H]1O[C@H](CO)[C@@H](O)C1(F)F [β-1-(6-amino-9H-purin-9-yl)-2-desoxy-2,2-difluororibose]
- IC50 [1]: 0.5 µg/mL (≈ 1.74 µM)
